According to ChEMBL document CHEMBL1131873, “Induction of erythroid differentiation of human K562 cells by 3-O-acyl-1,2-O-isopropylidene-D-glucofuranose derivatives” (Bioorg Med Chem Lett, 1999):
Blank lines part the entries; values can stand above or below the molecule they belong to.

What was measured:
K562 [1] = assay: Evaluated for erythroid induction of benzidine-positive K562 cells at concentration 2 mM after 9 day induction period; assay type: functional, Homo sapiens
K562 [2] = assay: Compound was evaluated for erythroid induction of benzidine-positive K562 cells at concentration 3 mM after 9 day induction period; assay type: functional, Homo sapiens
K562 [3] = assay: Compound was evaluated for erythroid induction of benzidine-positive K562 cells at concentration 4 mM after 9 day induction period; assay type: functional, Homo sapiens
K562 [4] = assay: Inhibition of cell growth against human myeloid leukemia K562(S) cells; assay type: functional, cell-based
K562 [5] = assay: Effect of compound on erythroid differentiation of K562 cells was determined after a period of 7 days at concentration 4 mM; assay type: functional, Homo sapiens
K562 [6] = assay: Effect of compound on erythroid differentiation of K562 cells was determined after a period of 9 days at concentration 4 mM; assay type: functional, Homo sapiens
K562 [7] = assay: Compound (2 mM) was evaluated for maximum level of percentage of benzidine-positive (hemoglobin-containing) K562 cells in the presence of ara-C (25 nM); assay type: functional, Homo sapiens
K562 [8] = assay: Compound (2 mM) was evaluated for maximum level of percentage of benzidine-positive (hemoglobin-containing) K562 cells in the presence of mithramycin (5 nM); assay type: functional, Homo sapiens
K562 [9] = assay: Compound (2 mM) was evaluated for maximum level of percentage of benzidine-positive (hemoglobin-containing) K562 cells in the presence of retinoic acid (5 uM); assay type: functional, Homo sapiens
K562 [10] = assay: Effect of compound on erythroid differentiation of K562 cells was determined after a period of 3 days at concentration 4 mM; assay type: functional, Homo sapiens
K562 [11] = assay: Effect of compound on erythroid differentiation of K562 cells was determined after a period of 5 days at concentration 4 mM; assay type: functional, Homo sapiens
K562 [12] = assay: Evaluated for erythroid induction of benzidine-positive K562 cells at concentration 3 mM; assay type: functional, Homo sapiens
K562 [13] = assay: Compound was evaluated for erythroid induction of benzidine-positive K562 cells at concentration 4 mM; assay type: functional, Homo sapiens
K562 [14] = assay: Compound was evaluated for erythroid induction of benzidine-positive K562 cells at concentration 1 mM after 9 day induction period; assay type: functional, Homo sapiens
K562 [15] = assay: Effect of compound on erythroid differentiation of K562 cells was determined after a period of 7 days at concentration 500 nM; assay type: functional, Homo sapiens
K562 [16] = assay: Effect of compound on erythroid differentiation of K562 cells was determined after a period of 9 days at concentration 500 nM; assay type: functional, Homo sapiens
K562 [17] = assay: Effect of compound on erythroid differentiation of K562 cells was determined after a period of 3 days at concentration 500 nM; assay type: functional, Homo sapiens
K562 [18] = assay: Effect of compound on erythroid differentiation of K562 cells was determined after a period of 5 days at concentration 500 nM; assay type: functional, Homo sapiens
K562 [19] = assay: Effect of compound on erythroid differentiation of K562 cells was determined after a period of 9 days at concentration 20 nM; assay type: functional, Homo sapiens
K562 [20] = assay: Effect of compound on erythroid differentiation of K562 cells was determined after a period of 3 days at concentration 20 nM; assay type: functional, Homo sapiens
K562 [21] = assay: Effect of compound on erythroid differentiation of K562 cells was determined after a period of 5 days at concentration 20 nM; assay type: functional, Homo sapiens
K562 [22] = assay: Effect of compound on erythroid differentiation of K562 cells was determined after a period of 7 days at concentration 20 nM; assay type: functional, Homo sapiens
K562 [23] = assay: The compound was evaluated for inhibition of cell growth against human myeloid leukemia K562(S) cells; assay type: functional, cell-based
K562 [24] = assay: Maximum level of percentage of benzidine-positive (hemoglobin-containing) K562 cells reached with in 9 days at 4 mM concentration; assay type: functional, Homo sapiens
K562 [25] = assay: Compound was evaluated for erythroid induction of benzidine-positive K562 cells at concentration 5 mM; assay type: functional, Homo sapiens
K562 [26] = assay: Compound (2 mM) was evaluated for maximum level of percentage of benzidine-positive (hemoglobin-containing) K562 cells in the presence of retinoic acid (5 µM)
K562 [27] = assay: Maximum level of percentage of benzidine-positive (hemoglobin-containing) K562 cells reached with in 9 days at 3 mM concentration; assay type: functional, Homo sapiens
K562 [28] = assay: In vitro inhibition of cell growth against human myeloid leukemia K562(S) cells; assay type: functional, cell-based
K562 [29] = assay: Compound was evaluated for erythroid induction of benzidine-positive K562 cells at concentration 5 mM after 9 day induction period; assay type: functional, Homo sapiens

Structure (SMILES): CCCCCC(=O)OC1C(C(O)CO)OC2OC(C)(C)OC21 (stereo not drawn)
- Erythroid induction (K562 [14]): 10.3%
- Erythroid induction (K562 [1]): 21%
- IC50 (K562 [4]): 1200 µM

Structure (SMILES): Nc1ccn([C@@H]2O[C@H](CO)[C@@H](O)[C@@H]2O)c(=O)n1 [CYTARABINE]
- Erythroid induction (K562 [15]): 84.5%
- Erythroid induction (K562 [16]): 93.2%
- Erythroid induction (K562 [17]): 45%
- Erythroid induction (K562 [18]): 61.5%
- Erythroid induction (K562 [12]): 95%
- IC50 (K562 [4]): 0.5 µM

Structure (SMILES): CCC(=O)O [PROPIONIC ACID]
- Erythroid induction (K562 [3]): 10%
- IC50 (K562 [4]): 4000 µM

Structure (SMILES): CO[C@H](C(=O)[C@@H](O)[C@@H](C)O)[C@@H]1Cc2cc3cc(O[C@H]4C[C@@H](O[C@@H]5C[C@@H](O)[C@H](O)[C@@H](C)O5)[C@H](O)[C@@H](C)O4)c(C)c(O)c3c(O)c2C(=O)[C@H]1O[C@H]1C[C@@H](O[C@@H]2C[C@@H](O)[C@@H](O[C@@H]3C[C@](C)(O)[C@H](O)[C@@H](C)O3)[C@@H](C)O2)[C@H](O)[C@@H](C)O1 [PLICAMYCIN]
- Erythroid induction (K562 [19]): 80%
- Erythroid induction (K562 [20]): 15%
- Erythroid induction (K562 [21]): 55%
- Erythroid induction (K562 [22]): 75%
- Erythroid induction (K562 [12]): 81%
- IC50 (K562 [23]): 0.01 µM

Structure (SMILES): CC(C)C(=O)OC1C(C(O)CO)OC2OC(C)(C)OC21 (stereo not drawn)
- Erythroid induction (K562 [5]): 56.8%
- Erythroid induction (K562 [6]): 50%
- Erythroid induction (K562 [7]): 78%
- Erythroid induction (K562 [10]): 20%
- Erythroid induction (K562 [11]): 35%
- Erythroid induction (K562 [12]): 43%
- Erythroid induction (K562 [13]): 54.2%
- Erythroid induction (K562 [25]): 59%
- IC50 (K562 [4]): 2500 µM
- Erythroid induction (K562 [26]): 55.8%

Structure (SMILES): CC(C)(C)C(=O)O [PIVALATE]
- Erythroid induction (K562 [5]): 11%
- Erythroid induction (K562 [6]): 6%
- Erythroid induction (K562 [10]): 4%
- Erythroid induction (K562 [11]): 9%
- Erythroid induction (K562 [12]): 12%
- IC50 (K562 [4]): 4500 µM

Structure (SMILES): CC(C)C(=O)O
- Erythroid induction (K562 [5]): 12%
- Erythroid induction (K562 [6]): 8%
- Erythroid induction (K562 [10]): 12%
- Erythroid induction (K562 [11]): 14%
- Erythroid induction (K562 [12]): 14%
- IC50 (K562 [4]): 4800 µM

Structure (SMILES): CCCC(=O)O [BUTYRIC ACID]
- Erythroid induction (K562 [12]): 35%
- IC50 (K562 [4]): 2400 µM

Structure (SMILES): CC(CC(=O)OC1C(C(O)CO)OC2OC(C)(C)OC21)c1ccccc1 (stereo not drawn)
- Erythroid induction (K562 [14]): 15%
- IC50 (K562 [4]): 500 µM

Structure (SMILES): CC1(C)OCC(C2OC3OC(C)(C)OC3C2O)O1 (stereo not drawn)
- Erythroid induction (K562 [27]): 26%
- Erythroid induction (K562 [24]): 18%
- IC50 (K562 [28]): 2800 µM

Structure (SMILES): CC1(C)OC2OC(C(O)CO)C(OC(=O)CC(c3ccccc3)c3ccccc3)C2O1 (stereo not drawn)
- Erythroid induction (K562 [14]): 14%
- IC50 (K562 [4]): 500 µM

Structure (SMILES): CC1(C)OC2OC(C(O)CO)C(OC(=O)C3CCCC3)C2O1 (stereo not drawn)
- Erythroid induction (K562 [2]): 7%
- Erythroid induction (K562 [3]): 16.8%
- Erythroid induction (K562 [29]): 8%
- IC50 (K562 [4]): 2500 µM

The next lines start with results.

- IC50 (K562 [4]): 2400 µM
Structure (SMILES): CCC(=O)OC1C(C(O)CO)OC2OC(C)(C)OC21 (stereo not drawn)
- Erythroid induction (K562 [1]): 21%
- Erythroid induction (K562 [2]): 19.6%
- Erythroid induction (K562 [3]): 25%

- IC50 (K562 [4]): 1500 µM
Structure (SMILES): CC1(C)OC2OC(C(O)CO)C(OC(=O)C(C)(C)C)C2O1 (stereo not drawn)
- Erythroid induction (K562 [5]): 50.7%
- Erythroid induction (K562 [6]): 59%
- Erythroid induction (K562 [7]): 90%
- Erythroid induction (K562 [8]): 34%
- Erythroid induction (K562 [9]): 67%
- Erythroid induction (K562 [10]): 22%
- Erythroid induction (K562 [11]): 25%
- Erythroid induction (K562 [12]): 51.7%
- Erythroid induction (K562 [13]): 50.2%

- IC50 (K562 [4]): 800 µM
Structure (SMILES): CCCC(=O)OC1C(C(O)CO)OC2OC(C)(C)OC21 (stereo not drawn)
- Erythroid induction (K562 [1]): 25.4%

- IC50 (K562 [4]): 2000 µM
Structure (SMILES): CCCCC(=O)OC1C(C(O)CO)OC2OC(C)(C)OC21 (stereo not drawn)
- Erythroid induction (K562 [1]): 24%
- Erythroid induction (K562 [2]): 28%
- Erythroid induction (K562 [3]): 25%

- IC50 (K562 [4]): 1200 µM
Structure (SMILES): CC(C)(C)CC(=O)OC1C(C(O)CO)OC2OC(C)(C)OC21 (stereo not drawn)
- Erythroid induction (K562 [1]): 20%

- IC50 (K562 [4]): 3800 µM
Structure (SMILES): CC(=O)OC1C(C(O)CO)OC2OC(C)(C)OC21 (stereo not drawn)
- Erythroid induction (K562 [24]): 27%

- IC50 (K562 [4]): 1000 µM
Structure (SMILES): CC(C)CC(=O)OC1C(C(O)CO)OC2OC(C)(C)OC21 (stereo not drawn)
- Erythroid induction (K562 [1]): 12%
